Earlier results, collected in patent US5883103A, “Oral acyclovir delivery” (priority 1995, dated 1999).

How the values were obtained:
[1] = test system: cellular α-DNA polymerase; conditions: compared with viral DNA polymerase
[2] = test system: viral DNA polymerase
[3] = test system: varicella zoster
[4] = test system: varicella-zoster; conditions: in vivo
[5] = test system: uninfected normal cells
[6] = test system: Epstein-Barr virus (EBV)
[7] = test system: herpes simplex types I (HSV-1)
[8] = test system: herpes simplex virus (HSV), cytomegalovirus (CMV) and varicella-zoster
[9] = test system: thymidine kinase (TK) expressed by uninfected normal cells
[10] = test system: TK encoded by HSV, varicella zoster, and EBV
[11] = test system: herpes simplex types 2 (HSV-2)
[12] = test system: cytomegalovirus (CMV)
[13] = oral

SMILES | effect on cellular α-DNA polymerase [1] | effect on viral DNA polymerase [2] | inhibition of varicella zoster [3] | effect on symptoms of acute varicella-zoster disease [4] | toxicity in vitro for uninfected normal cells [5] | inhibition of EBV [6] | inhibition of HSV-1 [7] | safety and efficacy in treatment of viral disease ([8]; immunocompromised and immunocompetent patients) | suppression of reactivated or newly acquired viral diseases ([8]; oral administration, genital herpes simplex, shingles, acute varicella-zoster) | morbidity and mortality from viral disease ([8]; pre- and postoperative prophylaxis, long-term (>6 months) oral) | substrate for TK of uninfected normal cells [9] | conversion by viral TK [10] | inhibition of HSV-2 [11] | inhibition of CMV [12] | absorption [13] | bioavailability [13]
Nc1nc2c(ncn2COCCOP(=O)(O)OP(=O)(O)OP(=O)(O)O)c(=O)[nH]1 [Acyclovir triphosphate] | to a lesser degree | interferes with viral DNA polymerase |  |  |  |  |  |  |  |  |  |  |  |  |  | 
Nc1nc2c(ncn2COCCO)c(=O)[nH]1 [acyclovir, 2-amino-1,9-dihydro-9-[(2-hydroxy-ethoxy)methyl]-6H-purin-6-one] |  |  | inhibits | reduces fever, chronic pain, the progression of rash and accelerates cutaneous healing | much less toxic in vitro for uninfected normal cells | inhibits | inhibits | safe and effective | suppression of reactivated or newly acquired viral diseases | reduced | not a substrate | converts acyclovir into acyclovir monophosphate | inhibits | inhibits | slowly and erratically absorbed | 15-30%
